How the values were obtained:
[1] = tested on: icSARS-CoV-2nMG (CoV2-GFP); type: cell-based, SARS-CoV-2
WA strain = assay: Plaque assay, WA strain; type: cell-based, SARS-CoV-2
[2] = tested on: mouse coronavirus MHV-A59-GFP
human coronavirus NL63 = assay: Gene expression (qPCR) in NL63 infected Calu3 cells; type: cell-based; settings: NL63 0.1 MOI, LG 20 uM, 48 hrs PI
Protocol: (§1) FIG. 2A-B are a series of graphs depicting broad spectrum anti-viral and anti-inflammatory activity of LG. Histograms showing mRNA expression assessed by qPCR. A) Effect of LG on poly I:C (P I:C) stimulated Calu 3 cells with or without LG treatment, B) Anti-inflammatory effect of LG treatment in NL63 infected Calu 3 cells. Cells were collected 48 hrs of post infection (PI) with NL63 virus (0.1 MOI) (C, Control) and treated with LG (20 uM) (T, Treatment), n=3, Data expressed as mean±SEM, * Compared to NL63, *p<0.05, **p<0.005, ***p<0.0005.
(§2) To examine whether LG has broad spectrum antiviral activity, Calu3 cells are stimulated with 10 ug/ml poly IC for 24 h, treated with 20 uM LG for 48 h, and then RNA was isolated for gene expression analyses. […] Further the inventors examined the effect of LG on the Calu3 lung cells infected with human coronavirus NL63.

[3] = tested on: mouse coronavirus MHV-A59-GFP; assay: microbe, parasite or virus in culture; settings: read-out: inhibition of infection
[4] = tested on: mouse coronavirus (MHV), K18 hACE2 transgenic mouse, and mouse adapted coronavirus (MA10) infection models
Delta strain = assay: Plaque assay, Delta strain; type: cell-based, SARS-CoV-2
RBD-ACE2 interaction = target: T1, RBD-ACE2 interaction (Severe acute respiratory syndrome coronavirus 2, UniProt P0DTC2); type: binding; settings: compared to the negative control
T1 construct: purchased Genscript

[5] = tested on: poly I:C stimulated Calu 3 cells; assay: Gene expression (qPCR) in poly I:C stimulated Calu3 cells; type: cell-based; settings: 10 ug/ml poly IC 24 h, 20 uM LG 48 h
Protocol: as §1, §2

icSARS-CoV-2nMG = type: cell-based, SARS-CoV-2

SMILES	CoV2 infection [1]	infected GFP-positive cells ([1]; LG 20 uM, WA strain, Caco2)	reduction in plaque titers (WA strain)	cell killing (bright field images) ([2]; 20 uM LG, DBT cells)	inhibition of coronavirus infection (dose dependence) ([2]; DBT cells, GFP)	reduction in infection versus Remdesvir ([2]; LG 20 uM vs Remdesvir 10 nM)	N transcript ([2]; LG 20 uM, compared to vehicle control)	expression of anti-inflammatory genes at transcript level (human coronavirus NL63)	inhibition at 20 µM [3]	efficacy in in vivo studies [4]	reduction in plaque titers (Delta strain)	interference of RBD-ACE2 interaction (RBD-ACE2 interaction)	expression of IL-6, IL1β, IFNγ, TNFα, NFkB, NLRP3 [5]	expression of IL-10 and PPARγ [5]	viral infection as seen by N gene expression (icSARS-CoV-2nMG)
CC(O)c1ccc(CCOc2ccc(CC3SC(=O)NC3=O)cc2)nc1 (stereo not drawn) [LG, leriglitazone]	dose-dependent decrease of CoV2 infection	significant reduction in infected GFP-positive cells	> 2 log	without killing the cells	inhibited coronavirus infection in a dose-dependent fashion	significantly higher reduction in infection	significant reduction in N transcript	altered expression of anti-inflammatory genes at the transcript level similar to that found in poly-IC experiment	> 70%	> 70%	> 2 log	significantly inhibited the RBD-ACE2 interaction in a dose-dependent manner	inhibits expression	increases expression	
CCCCC/C=C\C/C=C\CCCCCCCC(=O)O [LLA, linoleic acid]															significantly decreased viral infection

Source: patent US20240065983A1, “COMPOSITION AND METHOD FOR TREATING COVID-19” (University of South Florida, priority 2021, published 2024)
